What all share (format): in vivo
For experiment [1], the system named is Lolium perenne (LOLPE). Description: Example B pre-emergence herbicidal test, LOLPE. To be noted: Lolium perenne, 312 h, rate 250 g/ha, evaluated after 13 days, 100=total damage to plant, 0=no damage to plant. The procedure, abridged: (§1)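 Plants were rated 13 days after treatment, 0 = no damage to 100 = total damage. They were grown in a glasshouse at 24/16 °C, 14 h light, 65% humidity and watered twice daily. Pre-emergence spray was applied one day after sowing, formulated in acetone/water 50:50 with 0.5% Tween 20.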

Experiment [2] relates to Alopecurus myosuroides (ALOMY). As to the kind of experiment: Example B pre-emergence herbicidal test, ALOMY. Conditions: Alopecurus myosuroides, 312 h, rate 250 g/ha, evaluated after 13 days, 100=total damage to plant, 0=no damage to plant. The procedure, abridged:
as §1

Experiment [3] has as its system Echinochloa crus-galli (ECHCG). Description: Example B pre-emergence herbicidal test, ECHCG. To be noted: Echinochloa crus-galli, 312 h, rate 250 g/ha, evaluated after 13 days, 100=total damage to plant, 0=no damage to plant. The procedure, abridged: as §1
Experiment [4] relates to Avena fatua (AVEFA). As to the kind of experiment: Example B pre-emergence herbicidal test, AVEFA. To be noted: Avena fatua, 312 h, rate 250 g/ha, evaluated after 13 days, 100=total damage to plant, 0=no damage to plant. The procedure, abridged: as §1
The subject of experiment [5] is Lolium perenne (LOLPE). Description: Example B post-emergence herbicidal test, LOLPE. To be noted: Lolium perenne, 312 h, rate 250 g/ha, evaluated after 13 days, scale 0-100, read-out: Post-emergence activity LOLPE (100=total damage to plant; 0=no damage to plant). The procedure, abridged: (§2)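 Foliar application to 8-day-old pot-grown seedlings in a glasshouse (24/16 °C, 14 h photoperiod, 65% humidity). Spray solution was derived from an acetone/water (50:50) formulation with 0.5% Tween 20. Injury was assessed 13 days later on a 0–100 scale.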

Experiment [6] deals with Alopecurus myosuroides (ALOMY). Description: Example B post-emergence herbicidal test, ALOMY. Conditions: Alopecurus myosuroides, 312 h, rate 250 g/ha, evaluated after 13 days, scale 0-100, read-out: Post-emergence activity ALOMY (100=total damage to plant; 0=no damage to plant). The procedure, abridged: as §2
In experiment [7] the test system is Echinochloa crus-galli (ECHCG). Description: Example B post-emergence herbicidal test, ECHCG. Conditions: Echinochloa crus-galli, 312 h, rate 250 g/ha, evaluated after 13 days, scale 0-100, read-out: Post-emergence activity ECHCG (100=total damage to plant; 0=no damage to plant). The procedure, abridged:
as §2

The test system of experiment [8] is Avena fatua (AVEFA). As to the kind of experiment: Example B post-emergence herbicidal test, AVEFA. To be noted: Avena fatua, 312 h, rate 250 g/ha, evaluated after 13 days, scale 0-100, read-out: Post-emergence activity AVEFA (100=total damage to plant; 0=no damage to plant). The procedure, abridged:
as §2

With `Cc1cc(C)c(C2C(=O)CC(CC3CCN(C(=O)C(C)C)CC3)C2=O)c(C)c1` (stereo not shown) [Compound T80], the pest or weed control at 250 g/ha in experiment [1] was found to be 100%; in experiment [2], 70%; in experiment [3], 70%; in experiment [4], 70%; in experiment [5], 90%; in experiment [6], 90%. The figures for the pest or weed control at 250 g/ha in experiment [7] and in experiment [8] were 80% and 100%, respectively.

On to `COCC(=O)N1CCC(CC2CC(=O)C(c3c(C)cc(C)cc3C)C2=O)CC1` (stereo not shown) [Compound T81], for which the pest or weed control at 250 g/ha was 80% in experiment [1]; 80% in experiment [2]; 60% in experiment [3]; 80% in experiment [4]; 90% in experiment [5]; 90% in experiment [6]. Also, the results for the pest or weed control at 250 g/ha in experiment [7] and in experiment [8] were 80% and 100%, respectively.

With `Cc1cc(C)c(C2C(=O)CC(CC3CCN(C(=O)Cc4ccccc4)CC3)C2=O)c(C)c1` (stereo not shown) [Compound T82], the pest or weed control at 250 g/ha in experiment [1] is 90%; in experiment [2], 50%; in experiment [3], 60%; in experiment [4], 50%; in experiment [5], 90%; in experiment [6], 90%. Further, the pest or weed control at 250 g/ha in experiment [7] came to 80%; in experiment [8], 100%.

For the compound `CCC(=O)N1CCC(CC2CC(=O)C(c3c(C)cc(C)cc3C)C2=O)CC1` (stereo not shown) [Compound T83], the pest or weed control at 250 g/ha in experiment [1] was found to be 90%; in experiment [2] it was 60%; in experiment [3], 90%; in experiment [4], 70%; in experiment [5] it was 90%; in experiment [6], 80%. Also, the pest or weed control at 250 g/ha in experiment [7] came out at 70%; in experiment [8], 100%.

For `CCCCC(=O)N1CCC(CC2CC(=O)C(c3c(C)cc(C)cc3C)C2=O)CC1` (stereo not shown) [Compound T85], the pest or weed control at 250 g/ha in experiment [1] turned out to be 60%; in experiment [2], 60%; in experiment [3] it was 30%; in experiment [4], 20%; in experiment [5], 90%; in experiment [6], 90%. The results for the pest or weed control at 250 g/ha in experiment [7] and in experiment [8] were 80% and 90%, respectively.

For `Cc1cc(C)c(C2C(=O)CC(CC3CCN(C(=O)OCC(Cl)(Cl)Cl)CC3)C2=O)c(C)c1` (stereo not shown) [Compound T86], the pest or weed control at 250 g/ha in experiment [1] amounted to 100%; in experiment [2] it was 60%; in experiment [3] it was 50%; in experiment [4] it was 30%; in experiment [5], 70%; in experiment [6] it was 40%. Besides, the pest or weed control at 250 g/ha in experiment [7] and in experiment [8] was 80% each time.

For `Cc1cc(C)c(C2C(=O)CC(CC3CCN(C(=O)C(C)Cl)CC3)C2=O)c(C)c1` (stereo not shown) [Compound T87], the pest or weed control at 250 g/ha was 100% in experiment [1]; 90% in experiment [2]; 60% in experiment [3]; 90% in experiment [4]; 90% in experiment [5]; 70% in experiment [6]. Further, the results for the pest or weed control at 250 g/ha in experiment [7] and in experiment [8] were 70% and 90%, respectively.

In the case of `Cc1cc(C)c(C2C(=O)CC(CC3CCN(C(=O)C4CCCCC4)CC3)C2=O)c(C)c1` (stereo not shown) [Compound T89], the pest or weed control at 250 g/ha in experiment [1] came out at 70%; in experiment [2], 50%; in experiment [3] it was 60%; in experiment [4] it was 10%; in experiment [5], 40%; in experiment [6], 30%. Moreover, the pest or weed control at 250 g/ha worked out at 40% in experiment [7] and 20% in experiment [8].

In the case of `Cc1cc(C)c(C2C(=O)CC(CC3CCN(C(=O)c4ccco4)CC3)C2=O)c(C)c1` (stereo not shown) [Compound T90], the pest or weed control at 250 g/ha in experiment [1] turned out to be 60%; in experiment [2], 40%; in experiment [3] it was 50%; in experiment [4] it was 60%; in experiment [5], 80%; in experiment [6], 70%. For the same compound, the values for the pest or weed control at 250 g/ha in experiment [7] and in experiment [8] were 80% and 100%, respectively.

Turning to `Cc1cc(C)c(C2C(=O)CC(CC3CCN(S(=O)(=O)c4ccccc4)CC3)C2=O)c(C)c1` (stereo not shown) [Compound T91], the pest or weed control at 250 g/ha in experiment [1] turned out to be 70%; in experiment [2], 20%; in experiment [3], 60%; in experiment [4], 40%; in experiment [5], 50%; in experiment [6], 40%. For the same compound, the pest or weed control at 250 g/ha came to 50% in experiment [7] and 90% in experiment [8].

As for `Cc1cc(C)c(C2C(=O)CC(CC3CCN(S(=O)(=O)c4ccc(Cl)cc4)CC3)C2=O)c(C)c1` (stereo not shown) [Compound T92], the pest or weed control at 250 g/ha is 30% in experiment [1]; 30% in experiment [2]; 40% in experiment [3]; 10% in experiment [4]; 20% in experiment [5]; 30% in experiment [6]. For the same compound, the results for the pest or weed control at 250 g/ha in experiment [7] and in experiment [8] were 40% and 60%, respectively.

`Cc1cc(C)c(C2C(=O)CC(CC3CCN(S(=O)(=O)C(C)C)CC3)C2=O)c(C)c1` (stereo not shown) [Compound T93]: the pest or weed control at 250 g/ha in experiment [1] turned out to be 90%; in experiment [2] it was 60%; in experiment [3], 90%; in experiment [4] it was 60%; in experiment [5], 70%; in experiment [6], 60%. Besides, the pest or weed control at 250 g/ha in experiment [7] is 60%; in experiment [8], 70%.

With `Cc1cc(C)c(C2C(=O)CC(CC3CCN(S(C)(=O)=O)CC3)C2=O)c(C)c1` (stereo not shown) [Compound T94], the pest or weed control at 250 g/ha in experiment [1] was 90%; in experiment [2], 90%; in experiment [3], 80%; in experiment [4], 90%; in experiment [5] it was 90%; in experiment [6], 100%. The pest or weed control at 250 g/ha in experiment [7] worked out at 90%; in experiment [8], 100%.

In the case of `CCS(=O)(=O)N1CCC(CC2CC(=O)C(c3c(C)cc(C)cc3C)C2=O)CC1` (stereo not shown) [Compound T95], the pest or weed control at 250 g/ha in experiment [1] is 100%; in experiment [2], 90%; in experiment [3] it was 60%; in experiment [4], 90%; in experiment [5], 100%; in experiment [6] it was 90%. Further, the pest or weed control at 250 g/ha in experiment [7] came out at 70%; in experiment [8], 100%.

For `CCCCS(=O)(=O)N1CCC(CC2CC(=O)C(c3c(C)cc(C)cc3C)C2=O)CC1` (stereo not shown) [Compound T96], the pest or weed control at 250 g/ha in experiment [1] is 60%; in experiment [2] it was 20%; in experiment [3], 20%; in experiment [4], 10%; in experiment [5], 60%; in experiment [6], 60%. For the same compound, the pest or weed control at 250 g/ha in experiment [7] and in experiment [8] was 40% each time.

Turning to `COc1ccc(C(=O)N2CCC(CC3CC(=O)C(c4c(C)cc(C)cc4C)C3=O)CC2)cc1` (stereo not shown) [Compound T97], the pest or weed control at 250 g/ha came to 70% in experiment [1]; 30% in experiment [2]; 60% in experiment [3]; 30% in experiment [4]; 60% in experiment [5]; 70% in experiment [6]. Also, the pest or weed control at 250 g/ha in experiment [7] was 80%; in experiment [8], 70%.

For the compound `Cc1cc(C)c(C2C(=O)CC(CC3CCN(C(=O)c4ccc(C(F)(F)F)cc4)CC3)C2=O)c(C)c1` (stereo not shown) [Compound T99], the pest or weed control at 250 g/ha in experiment [1] was 60%; in experiment [2] it was 20%; in experiment [3], 60%; in experiment [4], 30%; in experiment [5] it was 50%; in experiment [6] it was 70%. Also, the pest or weed control at 250 g/ha in experiment [7] and in experiment [8] was 90% each time.

For the origin of these results see US9096560B2, “5-heterocyclylalkyl-3-hydroxy-2-phenylcyclopent-2-enones as herbicides” (Syngenta Limited, priority 2008, dated 2015).
